In patent US11617773B2, “Elimination of colonic bacterial driving lethal inflammatory cardiomyopathy” (Eligo Bioscience, priority 2020, dated 2023):
No end group written: not given here.

Assays:
[1] = system: CD4^+ T cells from TCRM mice; assay: Ex vivo proliferation assay (CFSE dilution) after peptide re-stimulation; assay type: cell-based, mouse; details: 3 days
Description: Spleen cells were labelled with 10 μl of 5 mM carboxyfluorescein succinimidyl ester (CSFE, dissolved in DMSO) (Molecular Probes) in 10 ml of PBS for 10 min at 37° C. The staining reaction was stopped with 1 mL FCS (Lonza), followed by washing with PBS. A total of 2×10^5 splenocytes/well were seeded in 96-well round-bottom plate and MYH6614-629 (RSLKLMATLFSTYASADR, SEQ ID NO: 10) or Bacteroides β-galactosidase11-25 (TFLILMAALTATFASAQK, SEQ ID NO: 11), Enterobacter cysteine hydrolase10-27 (LLIGMMSTFSTYASAQET, SEQ ID NO: 12) or OVA323-339 (ISQAVHAAHAEINEAGR, SEQ ID NO: 13) peptide was added at the indicated concentrations. CSFE dilution was assessed by flow cytometry after 3 days of incubation at 37° C. All peptides were synthetized by Genscript with >80% of purity.

[2] = system: peripheral blood mononuclear cells; assay: IFN-γ ELISPOT, human T cell stimulation; assay type: cell-based; details: Micro-DCM patients compared to healthy controls
Description: IFN-γ ELISPOT was performed as described by Lv et. al. with minor modifications (7), Briefly, PBMCs from patients and healthy volunteers were isolated on density gradients. PBMCs were adjusted to 2×10^6 cells/ml in 0.5 ml of complete IVS medium supplemented with 8% of human serum. Cells were stimulated for 48 h with 0.25 μg/ml of the indicated peptide or left untreated as medium control. After incubation, cells were washed and re-suspended in 0.3 ml of RPMI/10% FOS and approximately 5×10^5 cells/0.1 ml were dispensed in duplicates into previously coated and blocked ELISPOT plates (IFN-γ base kit, MABTECH). After 24 h of incubation at 37° C. the ELISPOT plates were washed and developed as indicated by the manufacturer. Plates were counted using an ELISPOT reader and analyzed with the software ELISPOT 3.1SR (AID). Number of specific IFN-γ positive cells was calculated as the mean of the duplicates minus the mean of the medium control.

[3] = system: Rag1^−/− mice; assay: Adoptive transfer myocarditis model with antibiotics treatment; assay type: in vivo, mouse; details: for accumulation of TCR-transgenic CD4^+ T cells in hearts / cardiac inflammation by flow cytometry (heart-infiltrating CD45^+ cells): day 28
Description: For the generation of single-cell suspensions, spleens and lymph nodes were collected in BSS and were mechanically disrupted on a metallic grid. To confirm the presence of heart-infiltrating cells, mice received 2 μg of anti-CD45.2 BV510 or anti-Thy 1.1 PE i.v. 5 min before being euthanized in the indicated experiments. Euthanized animals were perfused with 20 ml PBS and small heart tissue pieces were placed into a 6-well dish filled with RPMI 1640 medium containing 2% FCS, 20 mM HEPES (Lonza), 1 mg/ml collagenase 0 (Sigma) and 25 μg/ml DNasel (Applichem) and incubated at 37° C. under continuous stirring. The remaining tissue pieces were mechanically disrupted and mononuclear cells were purified by centrifugation (25 min at 800×g, 4° C.) on a 30-70% Percoll gradient (GE Healthcare). For isolation of colonic lamina propria cells, colons were flushed and tissue was harvested and incubated three times for 15 min at room temperature under constant agitation with BSS containing 5% FCS (Lonza), 5 mM EDTA (Sigma), 10 mM HEPES (Sigma) and 1 mM OTT in order to dissociate the epithelial layer. The tissue was subsequently washed with SS containing 10 mM HEPES and digested three times for 20 min at 37° C. with 120 μg/ml collagenase P (Roche), 25 μg/ml DNAse I (Applichem) and 5 μg/ml Dispase I (Roche) in RPMI-1640; after obtaining a single cell suspension, cells were purified by a 30-70% Percoll gradient. Single-cell suspensions were first stained with the fixable viability dye Zombie Aqua (Biolegend) and incubated for 30 min on ice; after washing, cells were incubated for 20 min at 4° C. in PBS containing 2% FCS and 10 mM EDTA with fluorochrome-labeled antibodies (Table 5). Cells were acquired with a BD LSRFortessa (BD Biosciences) and analyzed using FlowJo software (Treestar Inc) following stablished guidelines (32). […] Cells were stimulated with 0.25 μg of the different peptides (see below), or phorbol myristate acetate (50 ng/ml; Sigma)/ionomycin (500 ng/ml; Sigma) (PMA/l) as positive control, or were left untreated. After surface molecule labelling, cells were stained with the fixable viability dye Zombie Aqua (Biolegend). Cells were fixed with cytofix-cytoperm (BD Biosciences) for 20 min. […] Samples were measured using a BD LSR Fortessa (BD Biosciences). Data were analyzed using FlowJo software (Tree Star, Inc.). […] Red blood cells were lysed by osmotic shock and 10^6 splenocytes were injected intravenously in 4 wk mice in the lateral tail vein of Rag1^−/− mice. Seven days after adoptive transfer, mice were bled to confirm CD4^+ T cell expansion. Disease activity scores and analysis of T cell activation in the heart and colonic lamina propria were performed at day 28 post adoptive transfer.

[4] = system: CD4^+ T cells from heart and colon of TCRM mice; assay: Ex vivo restimulation and cytokine production of murine T cells; assay type: cell-based, mouse
Description: For assessment of ex vivo production of IFN-γ and IL-17, 10^6 lymphocytes were incubated for 3.5 h at 37° C. in 96-well round-bottom plates in 200 μL of RPMI per 5% FCS supplemented with 10 μg/mL brefeldin A (Sigma). Cells were stimulated with 0.25 μg of the different peptides (see below), or phorbol myristate acetate (50 ng/ml; Sigma)/ionomycin (500 ng/ml; Sigma) (PMA/l) as positive control, or were left untreated. After surface molecule labelling, cells were stained with the fixable viability dye Zombie Aqua (Biolegend). Cells were fixed with cytofix-cytoperm (BD Biosciences) for 20 min. Fixed cells were incubated at 4° C. for 40 min with permeabilization buffer (2% FCS, 0.5% saponin in PBS) containing antibodies to CD3, CD4, IFN-γ and IL-17A. Samples were measured using a BD LSR Fortessa (BD Biosciences). Data were analyzed using FlowJo software (Tree Star, Inc.).

[5] = system: TCRM T cells; assay: Proliferation of transferred TCRM CD4^+ T cells after injection of peptide loaded dendritic cells; assay type: in vivo, mouse; details: TCRM CD4^+ T cells transferred into BALB/c mice
From the text: FIGS. 7A-I. Specificity and immune interaction of Bacteroides mimic peptide-specific CD4^+ T cells. (FIG. 7A) In vitro proliferation of CD4^+ T cells from TCRM mice or DO11.10 mice measured by CFSE dilution after re-stimulation with MYH6 or Bacteroides β-galactosidase peptide or ovalbumin peptide at indicated concentration (representative histograms from 1 out of 2 experiments) (FIG. 7B) Dendritic cells loaded with MYH6 or β-gal peptide from Bacteroides at the indicated concentration were co-cultured in vitro with CD4^+ T cells from TCRM mice. Maximum proliferation of CD4^+ T cells was analyzed by flow cytometry and effective concentration 50 (EC50) for each peptide was determined. (FIG. 7C) CD4^+ T cells from TCRM mice were adoptively transferred into BALB/c mice. Proliferation of CD4^+ T cells from TCRM mice was determined ex vivo by CFSE dilution after injection of peptide loaded dendritic cells (n=3). (FIG. 7D-FIG. 7E) Colonization of GF TCRM mice with SPF microbiota or B. thetaiotaomicron or E. coli. […] Fold increase values were calculated using the cytokine production in GF mice as baseline (mean±SEM). […] (FIG. 7H) experimental dosing, (FIG. 7I) representative dot plots left and quantification right of IgA bound bacteria; background was set using samples from Rag^−/− mice (mean±SEM). […]

[6] = system: B. thetaiotaomicron; assay: Quantitative B. thetaiotaomicron PCR in feces; assay type: in vivo, Bacteroides thetaiotaomicron; details: Rag1^−/− recipients, qPCR
Description: Bacterial genomic DNA was extracted using a commercial kit (QIAamp DNA Stool Mini Kit) with minor modifications. Glass beads (Sigma, G4649-10G) were used for an optimal disruption of fecal content and an additional extraction step was introduced after incubation of bacteria with a lysis buffer (20 mg/ml lysozyme—Sigma 62970-5G-F, 2 mM EDTA, 1.2% Triton, 20 mM Tris-HCl). Extracted genomic DNA was used as a template for B. thetaiotaomicron PCR amplification and quantification using a real-time PCR machine (Quant Studio 5) and SYBR Green PCR technology (Applied Biosystems, Thermo Fisher Scientific). B. thetaiotaomicron was quantified using species specific primers that have been established and validated before (39) ([…] and […]) with a cycling protocol of denaturation at 95° C. (2 min), 40 cycles of 95° C. (20 sec), 58° C. (20 sec) and 72° C. (30 sec). Each 17 μl qPCR mixture consisted of 8.5 μl of 2×SYBR Green MasterMix (Applied Biosystems, Thermo Fisher Scientific), 1.7 μl of BSA (100 μg/ml), 0.6 μl of each primer (10 μM), 3.60 μl PCR-grade water and 2 μl of extracted genomic DNA. DNA extracted from B. theta ATCC29148 was used to construct a standard curve with 10-fold dilutions of DNA templates of known concentrations. Concentrations of DNA used in the standard curves ranged from 33.75 ng/μl equivalent to 10^7 bacteria to 0.035 pg/μl equivalent to 10^1 bacteria. […]

Compound | in vitro proliferation of CD4^+ T cells from TCRM mice [1] | IFN-γ reactivity of PBMC [2] | accumulation of TCR-transgenic CD4^+ T cells in hearts [3] | cardiac inflammation by flow cytometry (heart-infiltrating CD45^+ cells) [3] | other results
LLIGMMSTFSTYASAQET (Enterobacter cysteine hydrolase 10-27) [Enterobacter cloacae peptide, Enterobacter cysteine hydrolase10-27 peptide synthetized by Genscript] | not |  |  |  | 
SLKLMATLFSSYATAD (listed as Homo sapiens) [SEQ ID NO: 17, human myosin heavy chain 6 peptide] |  | significantly higher IFN-γ reactivity |  |  | 
[H]/N=C(/N)N[C@H]1[C@H](O)[C@@H](O)[C@H](O[C@@H]2O[C@@H](C)[C@](O)(C=O)[C@H]2O[C@@H]2O[C@@H](CO)[C@H](O)[C@@H](O)[C@@H]2NC)[C@@H](N/C(N)=N\[H])[C@@H]1O [Streptomycin] |  |  | significantly reduced accumulation | profound reduction | 
RSLKLMATLFSTYASADR (MYH6 614-629) [MYH6 peptide, MYH6614-629 peptide synthetized by Genscript] |  |  |  |  | IFN-γ or IL-17 secretion upon ex-vivo re-stimulation ([4]; CD4^+ T cells from colonic lamina propria, TCRM vs DO11.10): only MYH6-specific CD4^+ T cells, but not ovalbumin-specific CD4^+ T cells from the colonic lamina propria were able to secrete IFN-γ or IL-17
TFLILMAALTATFASAQK [B. theta β-gal peptide, TFLILMAALTATFASAQK] | induced in vitro proliferation | significantly higher IFN-γ reactivity |  |  | activation of TCRM T cells in vivo by peptide-pulsed dendritic cells [5]: efficient activation of TCRM T cells in vivo; ex vivo re-stimulation of transgenic CD4^+ T cells (cytokine production) ([4]; heart and colon of 12 week old TCRM mice): ex vivo re-stimulation of transgenic CD4^+ T cells from heart and colon
CN[C@H](CC(C)C)C(=O)N[C@H]1C(=O)N[C@@H](CC(N)=O)C(=O)N[C@H]2C(=O)N[C@H]3C(=O)N[C@H](C(=O)N[C@H](C(=O)O)c4cc(O)cc(O)c4-c4cc3ccc4O)[C@H](O)c3ccc(c(Cl)c3)Oc3cc2cc(c3O[C@@H]2O[C@H](CO)[C@@H](O)[C@H](O)[C@H]2O[C@H]2C[C@](C)(N)[C@H](O)[C@H](C)O2)Oc2ccc(cc2Cl)[C@H]1O [Vancomycin] |  |  | significantly reduced accumulation | profound reduction | B. theta levels in fecal samples [6]: reduced; activity of Th1 cells ([3]; IFN-γ production): reduced to a lesser extent; activation of heart-infiltrating and colonic Th17 cells ([3]; IL-17 production): pronounced impact; cardiac disease (histopathology) ([3]; day 28 post adoptive transfer): significantly ameliorated
